Like-named read-outs stand apart in the source and are kept apart here.
Target: P. falciparum apicoplast DNA polymerase (Pf-apPOL) (Plasmodium falciparum, UniProt Q8ILY1)
Experiment: Fluorescence-based high-throughput DNA polymerase assay (molecular beacon), primary screen and dose-response
Assay type: biochemical
Settings: for DNA Pol: unit not given, 90 min, 10 µM; for % inhibition Apo pol 10' 2.5 / % inhibition Apo pol 10' 5 / % inhibition Apo pol 10' 10 / % inhibition Apo pol 10' 20 / % inhibition Apo pol 10' 40 / % inhibition Apo pol 10' 80: read at 10'; for % inhibition Apol 90' 2.5 / % inhibition Apol 90' 5 / % inhibition Apol 90' 10 / % inhibition Apol 90' 20 / % inhibition Apol 90' 40 / % inhibition Apol 90' 80 / % inhibition ApPOL 90' 2.5 / % inhibition ApPOL 90' 5 / % inhibition ApPOL 90' 10 / % inhibition ApPOL 90' 20 / % inhibition ApPOL 90' 40 / % inhibition ApPOL 90' 80: read at 90'; for % inhibition apPOL 180' 2.5 / % inhibition apPOL 180' 5 / % inhibition apPOL 180' 10 / % inhibition apPOL 180' 20 / % inhibition apPOL 180' 40 / % inhibition apPOL 180' 80: read at 180'; for % inhibition Apo pol 5' 2.5 / % inhibition Apo pol 5' 5 / % inhibition Apo pol 5' 10 / % inhibition Apo pol 5' 20 / % inhibition Apo pol 5' 40 / % inhibition Apo pol 5' 80: read at 5'; for % inhibition Apol 40' 2.5 / % inhibition Apol 40' 5 / % inhibition Apol 40' 10 / % inhibition Apol 40' 20 / % inhibition Apol 40' 40 / % inhibition Apol 40' 80: read at 40'
Summary of the method: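 Single-point screening used 10 µM compound with 20 nM polymerase, 20 nM hairpin substrate and 6 µM dNTPs for 90 min at 25 °C. Confirmatory titrations (2.5–80 µM) followed fluorescence at three times, and IC50 was derived from a fit including a cooperativity term n.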

[1] = 186 hits, DNA Pol (screen value)
[2] = first dose-response, concentration 40

Sequence of P. falciparum apicoplast DNA polymerase (Pf-apPOL) (Q8ILY1 entry or part of it): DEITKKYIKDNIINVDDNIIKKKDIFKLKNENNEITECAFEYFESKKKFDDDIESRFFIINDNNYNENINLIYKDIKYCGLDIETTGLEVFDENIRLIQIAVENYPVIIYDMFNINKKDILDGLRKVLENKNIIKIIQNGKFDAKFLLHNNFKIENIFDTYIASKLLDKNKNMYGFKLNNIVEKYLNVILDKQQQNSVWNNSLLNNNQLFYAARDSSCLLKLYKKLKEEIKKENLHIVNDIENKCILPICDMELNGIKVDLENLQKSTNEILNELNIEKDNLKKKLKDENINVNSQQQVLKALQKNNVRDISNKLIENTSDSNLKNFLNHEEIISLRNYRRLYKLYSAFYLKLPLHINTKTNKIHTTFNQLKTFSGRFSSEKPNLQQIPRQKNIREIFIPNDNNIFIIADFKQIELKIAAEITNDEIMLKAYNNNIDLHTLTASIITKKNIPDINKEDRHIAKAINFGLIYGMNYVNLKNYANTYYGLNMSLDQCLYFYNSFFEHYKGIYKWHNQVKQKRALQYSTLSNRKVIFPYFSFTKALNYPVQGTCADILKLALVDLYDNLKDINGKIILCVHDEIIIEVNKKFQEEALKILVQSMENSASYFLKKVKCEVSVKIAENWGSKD

## CCOc1nc2cccc(C(=O)OC(C)OC(=O)OC3CCCCC3)c2n1Cc1ccc(-c2ccccc2-c2nnn[nH]2)cc1 (centres unmarked) [Molecule 94]
read-out: IC50 Pf-apPOL, Table 2
  IC50: 7.6 ± 0.6 µM
Supplemental file 2, sheet IC50 nontoxic compounds, Pf-apPOL
  IC50: 7.66 µM

## Cc1nc(C)c2c(n1)N(CC1CCCCC1)C(=O)CC2 [KU0218606]
[1]
  DNA Pol: 50
'DNA Pol' (screen value)
  DNA Pol: 50
DRC-1, concentration 2.5
  % inhibition Apo pol 10' 2.5: 34.0428%
  % inhibition Apol 90' 2.5: 24.6813%
  % inhibition apPOL 180' 2.5: 16.0854%
DRC-1, concentration 5
  % inhibition Apo pol 10' 5: 39.9001%
  % inhibition Apol 90' 5: 31.9392%
  % inhibition apPOL 180' 5: 24.5851%
DRC-1, concentration 10
  % inhibition Apo pol 10' 10: 47.3749%
  % inhibition Apol 90' 10: 42.478%
  % inhibition apPOL 180' 10: 35.963%
DRC-1, concentration 20
  % inhibition Apo pol 10' 20: 48.9825%
  % inhibition Apol 90' 20: 47.74%
  % inhibition apPOL 180' 20: 43.6778%
DRC-1, concentration 40
  % inhibition Apo pol 10' 40: 54.7667%
  % inhibition Apol 90' 40: 54.1171%
  % inhibition apPOL 180' 40: 53.1041%
DRC-1, concentration 80
  % inhibition Apo pol 10' 80: 55.4322%
  % inhibition Apol 90' 80: 56.5278%
  % inhibition apPOL 180' 80: 57.3534%
DRC-2, concentration 5
  % inhibition Apo pol 5': 24%
  % inhibition Apol 40': 30%
  % inhibition Apo pol 5' 5: 24%
  % inhibition Apol 40' 5: 30%
  % inhibition ApPOL 90' 5: 31%
  % inhibition apPOL 180' 5: 26%
DRC-2, concentration 20
  % inhibition Apo pol 5': 27%
  % inhibition apPOL 180': 38%
  % inhibition Apo pol 5' 20: 27%
  % inhibition Apol 40' 20: 39%
  % inhibition ApPOL 90' 20: 42%
  % inhibition apPOL 180' 20: 38%
DRC-2, concentration 40
  % inhibition Apo pol 5': 30%
  % inhibition Apol 40': 42%
  % inhibition apPOL 180': 42%
  % inhibition Apo pol 5' 40: 30%
  % inhibition Apol 40' 40: 42%
  % inhibition ApPOL 90' 40: 45%
  % inhibition apPOL 180' 40: 42%
DRC-2, concentration 80
  % inhibition Apo pol 5': 27%
  % inhibition Apo pol 5' 80: 27%
  % inhibition Apol 40' 80: 41%
  % inhibition ApPOL 90' 80: 47%
  % inhibition apPOL 180' 80: 46%
DRC-2, concentration 2.5
  % inhibition Apol 40': 24%
  % inhibition Apo pol 5' 2.5: 20%
  % inhibition Apol 40' 2.5: 24%
  % inhibition ApPOL 90' 2.5: 25%
  % inhibition apPOL 180' 2.5: 18%
DRC-2, 90', concentration 10
  % inhibition ApPOL 90': 38%
DRC-2, 90', concentration 20
  % inhibition ApPOL 90': 42%
DRC-2, concentration 10
  % inhibition Apo pol 5' 10: 28%
  % inhibition Apol 40' 10: 36%
  % inhibition ApPOL 90' 10: 38%
  % inhibition apPOL 180' 10: 34%

## Cn1nc(-c2nnc(-c3ccccc3F)o2)c2c1CCN(C(=O)c1ccccc1Cl)C2 [Molecule 34, Cn1nc(c2c1CCN(C2)C(=O)c1ccccc1Cl)c1nnc(o1)c1ccccc1F]
[1]
  DNA Pol: 48
'DNA Pol' (screen value)
  DNA Pol: 48
DRC-1, concentration 2.5
  % inhibition Apo pol 10' 2.5: 33%
  % inhibition Apol 90' 2.5: 23%
  % inhibition apPOL 180' 2.5: 17%
DRC-1, concentration 5
  % inhibition Apo pol 10' 5: 44%
  % inhibition Apol 90' 5: 35%
  % inhibition apPOL 180' 5: 28%
DRC-1, concentration 10
  % inhibition Apo pol 10' 10: 52%
  % inhibition Apol 90' 10: 46%
  % inhibition apPOL 180' 10: 41%
DRC-1, concentration 20
  % inhibition Apo pol 10' 20: 58%
  % inhibition Apol 90' 20: 54%
  % inhibition apPOL 180' 20: 50%
DRC-1, concentration 40
  % inhibition Apo pol 10' 40: 59%
  % inhibition Apol 90' 40: 59%
  % inhibition apPOL 180' 40: 58%
DRC-1, concentration 80
  % inhibition Apo pol 10' 80: 63%
  % inhibition Apol 90' 80: 65%
  % inhibition apPOL 180' 80: 64%
DRC-2, concentration 2.5
  % inhibition Apo pol 5': 20%
  % inhibition Apol 40': 22%
  % inhibition Apo pol 5' 2.5: 20%
  % inhibition Apol 40' 2.5: 22%
  % inhibition ApPOL 90' 2.5: 22%
  % inhibition apPOL 180' 2.5: 15%
DRC-2, concentration 5
  % inhibition Apo pol 5': 20%
  % inhibition Apol 40': 27%
  % inhibition Apo pol 5' 5: 20%
  % inhibition Apol 40' 5: 27%
  % inhibition ApPOL 90' 5: 27%
  % inhibition apPOL 180' 5: 21%
DRC-2, concentration 80
  % inhibition Apo pol 5': 39%
  % inhibition Apol 40': 52%
  % inhibition apPOL 180': 52%
  % inhibition Apo pol 5' 80: 39%
  % inhibition Apol 40' 80: 52%
  % inhibition ApPOL 90' 80: 55%
  % inhibition apPOL 180' 80: 52%
DRC-2, concentration 40
  % inhibition Apol 40': 49%
  % inhibition apPOL 180': 49%
  % inhibition Apo pol 5' 40: 38%
  % inhibition Apol 40' 40: 49%
  % inhibition ApPOL 90' 40: 52%
  % inhibition apPOL 180' 40: 49%
DRC-2, 90', concentration 2.5
  % inhibition ApPOL 90': 22%
DRC-2, 90', concentration 5
  % inhibition ApPOL 90': 27%
DRC-2, 90', concentration 40
  % inhibition ApPOL 90': 52%
DRC-2, concentration 20
  % inhibition apPOL 180': 39%
  % inhibition Apo pol 5' 20: 29%
  % inhibition Apol 40' 20: 40%
  % inhibition ApPOL 90' 20: 43%
  % inhibition apPOL 180' 20: 39%
DRC-2, concentration 10
  % inhibition Apo pol 5' 10: 24%
  % inhibition Apol 40' 10: 34%
  % inhibition ApPOL 90' 10: 36%
  % inhibition apPOL 180' 10: 31%
First dose-response, concentration 10
  % inhibition Apo pol 10': 52%
First dose-response, concentration 20
  % inhibition Apo pol 10': 58%
[2]
  % inhibition Apo pol 10': 59%
  % inhibition apPOL 180': 58%
First dose-response, 90', concentration 40
  % inhibition Apol 90': 59%
